EC50 data for 88 compounds are collected here from PubChem BioAssay AID489040 (Sanford-Burnham Center for Chemical Genomics, 2010).

Structures are written as SMILES. Calls of active or inactive are those of the source.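 How the source made its calls: active means mean half-maximal activating concentration from the dose-response fit at or below a set limit; inactive means the rest.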

In this test the target is CHO-XBP1 luciferase reporter, IRE1-XBP1 UPR activation. Kind of test: XBP1 luciferase reporter activation – CHO-XBP1 cells, luminescence, counter-screen for apoptotic UPR arm activators, dose response (AID 489040).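 Further: reporter read after six hours of compound exposure.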
For `CCOC(=O)C1=C(Cc2ccc(Cl)cc2)C(=O)c2ccccc2C1=O`, the EC50 is > 80 µM (inactive). The figure for `Cc1cc(C(=O)c2ccc(Cl)cc2)c(NC(=O)CCl)s1` is > 80 µM (inactive); for `Nc1nc(CC(=O)CSc2ccc(Cl)cc2)nc(Nc2ccc(F)cc2)n1` it is > 80 µM (inactive).

Consider `S=C(Nc1ccccn1)c1ccccn1`, for which the EC50 was > 80 µM (inactive).

As for `Cc1ccc(C)c(NC(=O)/C(C#N)=C/c2cn(CC(=O)NCc3ccco3)c3ccccc23)c1`, the EC50 is 6.33 µM. With `Cc1[nH]c2c(C)cccc2c1CCNC(=O)c1ccc2c(c1[N+](=O)[O-])C(=O)c1ccccc1C2=O` the figure was > 80 µM (inactive); with `Cc1sc(NC(=O)c2cc(-c3ccc(Cl)cc3)nc3ccccc23)c(C(N)=O)c1C`, 15.2 µM. The entry for `O=C(Nc1nc(-c2ccccn2)cs1)c1ccc(Cl)s1` is “inactive”; for `O=C(Oc1oc(-c2ccco2)nc1C=Nc1ccc(Cl)cc1)c1ccco1` it is > 80 µM (inactive). With `COc1ccccc1N1CCN(/N=C/c2ccc(O)c(O)c2)CC1` the figure was > 80 µM (inactive). Consider `Cc1cc(O)c(-c2cc(O)c(C)cc2O)cc1O`, for which the EC50 was > 80 µM (inactive). On to `O=S(=O)(CCSc1nc2ccccc2s1)c1nc2ccccc2s1`, for which the EC50 is > 80 µM (inactive). With `OCCNc1nc(Nc2ccc(Br)cc2)nc2ccccc12` the figure was 5.17 µM; with `CCOC(=O)c1cc(-c2ccc(/C=C3/C(=O)N(c4ccc(C(=O)O)cc4)N=C3C)o2)ccc1Cl`, > 80 µM (inactive); with `O=C(/C=C\c1ccccc1OC(=O)c1ccccc1F)c1cc2ccccc2o1`, 13.7 µM.

Turning to `O=C(COC(=O)c1ccccc1C(=O)c1ccc(Cl)c([N+](=O)[O-])c1)NC1CCCCCC1`, the EC50 was > 80 µM (inactive). In the case of `Oc1c(C(Nc2ccccn2)c2ccccn2)ccc2cccnc12` (stereo not drawn), the EC50 is > 80 µM (inactive). The figure for `COC(=O)c1ccc(-n2c(C)cc(C(=O)CCl)c2C)cc1` is 9.06 µM; for `C=C(C(=O)c1ccccc1)C(C(=C)C(=O)c1ccccc1)c1ccc(OC)cc1` it is > 80 µM (inactive); for `CC(C)(C)C(=O)NC(=S)NNC(=O)c1ccc(-c2ccccc2)cc1` it is 9.6 µM. Take `O=C(Nc1nc(-c2ccc(F)c(F)c2)cs1)Nc1ccc(F)cc1F`: the EC50 was > 80 µM (inactive).

Turning to `Cc1noc2ncnc(Sc3ccc(Br)cc3)c12`, the EC50 was > 80 µM (inactive). Consider `COc1ccc(CC2=CC(=O)c3ccccc3C2=O)cc1`, for which the EC50 was > 80 µM (inactive).

For the compound `Cc1ccc(NN2C(=O)C=C(c3ccccc3)C2=O)cc1`, the EC50 was > 80 µM (inactive).

As for `CN(C(=O)CSc1cc(C(=O)c2nccn2C)c2ccccc2n1)c1ccccc1`, the EC50 was > 80 µM (inactive). With `Oc1c(C(c2ccccc2Cl)N2CCCC2)ccc2cccnc12` (stereo not drawn) the figure was > 80 µM (inactive). With `COc1ccc(N=c2oc3c(OC)cccc3cc2C(=O)NCc2ccco2)cc1OC` the figure was > 80 µM (inactive); with `Cc1nc([N+](=O)[O-])c(Br)n1CC(=O)c1ccc(Br)cc1`, > 80 µM (inactive); with `COc1cccc2sc(Nc3nc(-c4ccccn4)cs3)nc12`, > 80 µM (inactive). The figure for `CC1(C)CC(=O)C(=Cc2cn(-c3ccccc3)nc2-c2ccccc2)C(=O)C1` is > 80 µM (inactive); for `O=C(CCl)c1ccc(Cc2ncc(C(F)(F)F)cc2Cl)s1` it is > 80 µM (inactive). `COc1ccc2cc1Oc1ccc(cc1)CC1c3c(cc(OC)c4c3Oc3cc5c(cc3O4)CCNC5C2)CCN1C` (stereo not drawn): the EC50 is > 80 µM (inactive). With `O=C(Nc1ccc(-c2nc3cc(NC(=O)c4cccs4)ccc3o2)cc1)c1cccs1` the figure was 6.4 µM. With `Cc1cc(N/N=C/c2ccccc2[N+](=O)[O-])nc(-n2nc(C)cc2C)n1` the figure was > 80 µM (inactive). The figure for `COc1cc(C(=O)Nc2nc(-c3ccc(Cl)cc3)c(C)s2)ccc1OCC(=O)Nc1ccc(F)cc1` is > 80 µM (inactive).

For `CCOc1ccc2nc(SC3CC(=O)N(c4ccc(C)cc4)C3=O)sc2c1` (stereo not drawn), the EC50 was > 80 µM (inactive). As for `CCOc1ccccc1N=Cc1c(O)c2ccccc2oc1=O`, the EC50 was 10.8 µM.

Turning to `O=C(NCc1cccnc1)/C(=C/c1ccc(-c2ccc(Cl)cc2)o1)S(=O)(=O)c1ccccc1`, the EC50 is > 80 µM (inactive). With `COc1cc(/C=C/C(=O)c2ccc3c(c2)OCCO3)cc(Br)c1OCC(=O)N(C)C` the figure was > 80 µM (inactive); with `O=C(Nc1ccc(Cl)cc1)/C(=C/c1cccc(O)c1)c1nc2ccccc2s1`, > 80 µM (inactive). With `COC(=O)C1=C(C)N(c2ccc(C)c(C)c2)/C(=C/c2ccco2)C1=O` the figure was > 80 µM (inactive). The figure for `COc1cc(CNc2ccc3[nH]c(=O)[nH]c3c2)cc(Br)c1OCc1ccccc1F` is > 80 µM (inactive); for `CN(/N=C\c1ccc(O)c(O)c1)c1nc(-c2ccccc2)cc(-c2ccccc2)n1` it is 4.96 µM; for `CC(C)N1CSC(=S)N(Cc2ccccc2)C1` it is > 80 µM (inactive). Take `Cc1cc(SCC(=O)N/N=C/c2ccc(O)c(O)c2)nc2ccccc12`: the EC50 result was “inactive”. With `O=C(NCCc1ccc(F)cc1)c1coc(=O)c(Br)c1` the figure was > 80 µM (inactive); with `COc1ccccc1-c1cc(C(F)(F)F)nc(S(C)(=O)=O)n1`, > 80 µM (inactive); with `CCOC(=O)N1CCN(S(=O)(=O)c2ccc(C(=O)Nc3nc4c(s3)CC(C)CC4)cc2)CC1` (stereo not drawn), > 80 µM (inactive). The figure for `c1ccc(-c2nc(N3CCCCCC3)c3ccccc3n2)nc1` is > 80 µM (inactive).

For `Cc1cc(C(=O)CCl)c(C)n1CCc1ccccc1`, the EC50 is > 80 µM (inactive). In the case of `COc1cccc2sc(Nc3nc(C)c(C(C)=O)s3)nc12`, the EC50 was > 80 µM (inactive). The figure for `CC1=CC(C)(C)Nc2ccc(OC(=O)CN3C(=O)CCC3=O)cc21` is > 80 µM (inactive); for `COC(=O)c1cc(=O)n(CCc2ccc(OC)cc2)c(=Nc2ccc(F)c(Cl)c2)s1` it is > 80 µM (inactive). In the case of `CC(C)(C)c1ccc(/C=C(\c2nc3ccccc3[nH]2)S(=O)(=O)c2ccccc2)cc1`, the EC50 is > 80 µM (inactive).

On to `COc1ccc(/C=C/c2nc3cc(-c4ccccc4)ccc3o2)cc1O`, for which the EC50 was > 80 µM (inactive). The figure for `CCOC(=O)C(=Cc1ccc(-n2cncn2)cc1)C(=O)OCC` is > 80 µM (inactive); for `Oc1cc(-c2ccncc2)cc2cccnc12` it is > 80 µM (inactive); for `COc1ccccc1/C=N\Nc1cc(C)nc(-n2nc(C)cc2C)n1` it is > 80 µM (inactive).

Consider `COc1ccc(C(C[N+](=O)[O-])n2nc(C)cc2C)cc1` (stereo not drawn), for which the EC50 is > 80 µM (inactive). For `CCOC(=O)C(=Cc1ccc(-n2ccnc2)cc1)C(=O)OCC`, the EC50 is > 80 µM (inactive). For the compound `Cc1cccc(C)c1NC(=O)C(Cl)C(=O)c1ccccc1` (stereo not drawn), the EC50 was > 80 µM (inactive). As to `Cc1ccc(F)cc1N=Cc1c(O)c2ccccc2oc1=O`, the EC50 is > 80 µM (inactive). As for `Oc1ccc(-c2nc(-c3ccc(O)c(O)c3)cs2)cc1`, the EC50 is > 80 µM (inactive).

`COc1ccc(-c2oc(NC(=O)CCl)c(C#N)c2-c2ccc(OC)cc2)cc1`: the EC50 is > 80 µM (inactive). The entry for `Cc1ccc(-n2nc3cc(C)c(NC(=S)NC(=O)/C=C/c4ccco4)cc3n2)cc1` is “inactive”; for `COCCN=c1scc(-c2cccs2)n1/N=C/c1ccc(O)c(O)c1O` it is > 80 µM (inactive). The figure for `COc1ccc(-c2cc(C(F)(F)F)nc(S(C)(=O)=O)n2)cc1OC` is > 80 µM (inactive); for `O=C(Nc1nc2c(F)cc(F)cc2s1)c1ccccn1` it is > 80 µM (inactive); for `C/C(=N\NC(=O)c1cccc2ccccc12)c1ccccn1` it is > 80 µM (inactive).

For the compound `Cc1ccc2oc(Nc3nc(-c4ccccc4)cc(=O)[nH]3)nc2c1`, the EC50 was > 80 µM (inactive). The figure for `Cn1nc(C(F)(F)F)c(/C=N/OC(=O)c2ccccc2)c1SCc1ccccc1Cl` is 6.11 µM; for `Cc1ccc2c(C(=O)CCl)c(C)[nH]c2c1` it is > 80 µM (inactive). With `Cc1cc(C)nc(SCc2ccc(C(=O)N/N=C/c3cccc(O)c3O)cc2)n1` the figure was > 80 µM (inactive); with `O=[N+]([O-])/C=C\c1ccc(N2CCOCC2)cc1`, > 80 µM (inactive). Regarding `FC(F)(F)c1nnc2c(Sc3ccccc3)nc3ccc(Cl)cc3n12`, the EC50 was 9.74 µM. The figure for `Oc1ccc(/C=N/N2CCCCC2)cc1O` is > 80 µM (inactive); for `CCc1cccc2sc(N3CCN(C(=O)c4ccc([N+](=O)[O-])o4)CC3)nc12` it is > 80 µM (inactive); for `O=C(CSC(=S)N1CCCC1)c1cc(Br)cc(Br)c1O` it is > 80 µM (inactive). On to `Cc1cc(NC(=O)CCS(=O)(=O)c2nc(-c3ccccc3)cc(C(F)(F)F)n2)no1`, for which the EC50 was > 80 µM (inactive). On to `O=C(Nc1ccc(S(=O)(=O)N2CCOCC2)cc1)c1ccc([N+](=O)[O-])o1`, for which the EC50 was > 80 µM (inactive).

For the compound `COc1ccccc1-c1cc(C(F)(F)F)nc(S(=O)(=O)CCCC(=O)N2CCCCC2C)n1` (stereo not drawn), the EC50 is > 80 µM (inactive). The figure for `Cn1c(=O)c2c(SCC(=O)Nc3ccccc3F)nc(-c3ccccc3F)nc2n(C)c1=O` is 10.9 µM; for `Cc1ccccc1/C=C/C(=O)c1ccc([N+](=O)[O-])o1` it is > 80 µM (inactive). The figure for `COc1ccc(CCNC(=O)c2coc(=O)c(Br)c2)cc1` is > 80 µM (inactive); for `Oc1ccc(-c2csc(Nc3cccc4ccccc34)n2)cc1O` it is > 80 µM (inactive). The figure for `COc1ccc2[nH]cc(C(=O)CCl)c2c1` is > 80 µM (inactive). In the case of `CN(C)CC(CCC(CN(C)C)C(O)(c1ccccc1)c1ccccc1)C(O)(c1ccccc1)c1ccccc1` (stereo not drawn), the EC50 was > 80 µM (inactive). With `COc1cc2nc(=S)n3[nH]c(CCn4nc(C)cc4C)nc3c2cc1OC` the figure was > 80 µM (inactive).

The EC50 is the concentration that produces a half-maximal response.
